In PubChem BioAssay AID743267 (Broad Institute, 2014):

System: human bronchial epithelial cells, CFTR corrector, plate reader
Test: CFTR ΔF508 corrector activity in bronchial cells, dose response, human bronchial epithelial cells, plate reader, cherry-pick, two tests (AID 743267)
Conditions: measured here: test 1 replicate run

Compound	AC50 [µM]
CN1c2ccc(-c3ccc(C#N)cc3)cc2[C@H]2[C@H](CCN2S(=O)(=O)c2cccc(F)c2)[C@H]1CO	0.128
COc1ccc(-c2ccc3c(c2)[C@H]2[C@H](CCN2S(=O)(=O)c2ccc(OC)cc2)[C@@H](CO)N3C)cc1	9.59
COC(=O)C[C@@H]1CC[C@@H]2[C@H](COc3ccc(NC(=O)c4cc(C)on4)cc3C(=O)N2C)O1	3.67
C[C@@H]1CN([C@H](C)CO)S(=O)(=O)c2ccc(-c3ccc(C#N)cc3)cc2O[C@H]1CN(C)Cc1ccccn1	16
COc1ccc(S(=O)(=O)N2CC[C@@H]3[C@@H](CO)Nc4ccc(-c5cccc(C#N)c5)cc4[C@@H]32)cc1	16
Cc1ccc(-c2ccc3c(c2)O[C@H](CN(C)C(=O)Nc2ccc(C(F)(F)F)cc2)[C@@H](C)CN([C@@H](C)CO)S3(=O)=O)cc1	> 50
COc1ccc(S(=O)(=O)N2CC[C@@H]3[C@H](CO)N(C)c4ccc(-c5ccc(F)cc5)cc4[C@@H]32)cc1	16
CO[C@@H](CN(C)S(=O)(=O)c1ccc(C)cc1)[C@H](C)CN([C@@H](C)CO)S(=O)(=O)c1cccc(Cl)c1	5.49
COc1cccc(-c2cccc(-c3nc(C(=O)NCC(F)(F)F)cc4c3[C@H](CCO)N([S@@](=O)C(C)(C)C)C4)c2)c1	2.75

Same assay, conditions: measured here: test 2 replicate run

Compound	AC50 [µM]
COC(=O)c1cn(C(=O)c2ccc(C)cc2C)c2ccccc12	7.53
COc1cc(SC)ccc1C(=O)N1CCN(c2ccccc2OC)CC1	6.62
COC(=O)CSC1=C(C#N)C(c2ccc(C)o2)CC(=O)N1 (stereo not given)	8.06
COC(=O)Cn1c(=NC(=O)c2cc(-c3cccs3)nc3ccccc23)sc2cc(S(N)(=O)=O)ccc21	> 50
COc1ccc(CC(=O)NCc2ccc(-n3cccc3)cc2)cc1OC	3.53
CC(=O)Nc1ccc(S(=O)(=O)Nc2cccc(-c3nc4cc(C)ccc4o3)c2)cc1	8.92
c1ccc2nc(N3CCNCC3)ccc2c1	> 50
O=c1c2ccccc2sc2c(CO)ccc(NCCN3CCCCC3)c12	5.18
Cc1occc1C(=O)N/N=C/c1c(O)ccc2ccccc12	1.84
COc1ccc(CCNc2c3ccccc3nc3ccccc23)cc1OC	3.9
Cc1cccc(N2CCN(C(=O)c3c(-c4ccccc4)noc3C)CC2)c1C	2.59
CCCOCCOC(=O)c1[nH]c2c(c1C)C(=O)CC(c1cc(OC)ccc1OC)C2 (stereo not given)	3.69
CCCCn1cnc2c(c(CC#N)nn2-c2ccccc2)c1=N	> 50
CC1CCN(C(=O)C2COc3ccccc3O2)CC1 (stereo not given)	35.1
Cc1ccc(NC(=O)c2ccc(Cl)c(S(=O)(=O)Nc3c(C)n(C)n(-c4ccccc4)c3=O)c2)cc1Cl	30.3
C#C[C@]1(O)CC[C@H]2[C@@H]3CCc4cc(OC)ccc4[C@H]3CC[C@@]21C	2.48
CCCCn1c(CN2CCN(c3cccc(Cl)c3)CC2)nc2c1c(=O)[nH]c(=O)n2C	4.31
CCOC(=O)N1CCN(C(=O)C2CCC(=O)N(CCCN3CCCC3=O)C2)CC1 (stereo not given)	10.5
Cc1cc(NC(=O)CN2C(=O)NC3(CCCCCC3)C2=O)ccc1Br	8.4
COc1ccccc1N=C1SC(C(=O)Nc2cccc(Cl)c2Cl)C(N)=C1C(N)=O (stereo not given)	6.08
COc1cccc(C2=CC(c3ccccc3)n3nnnc3N2)c1 (stereo not given)	3.85
CCOC(=O)c1c(C)[nH]c(C(=O)N/N=C\c2ccccc2O)c1C	3.36

Compound	AC50 [µM]
COc1ccc(NS(=O)(=O)c2cc(NC(=O)Cc3c(F)cccc3Cl)ccc2OC)cc1	0.827
O=C1c2ccccc2C(=O)c2c1cccc2N(CCO)CCO	> 50
CCN(Cc1ccccc1)c1ccc(/C=N/N=C(N)N)cc1	4.74
N=C1/C(=C/c2cccn2CCOc2ccccc2)C(=O)N=C2SC=C(c3ccccc3)N12	10.8
NCC(=O)NNC(=O)OCC1c2ccccc2-c2ccccc21	7.38
COc1ccc(C2C3=C(COC3=O)Oc3cc4c(cc32)OCO4)cc1OC (stereo not given)	3.72
CC(=O)Oc1c(C)cc(Cl)cc1C(=O)Nc1ccc([N+](=O)[O-])cc1Cl	1.38
O=c1c(O)c(-c2cccs2)oc2ccc(Cl)cc12	6.12
O=C(N/N=C/c1cc(Br)cc(Cl)c1O)c1ccc2c(c1)OCO2	9.98
Cc1ccccc1-c1nc(CS(=O)(=O)CC(=O)NCc2ccccc2)c(C)o1	> 50
COc1cc([C@@H]2c3cc4c(cc3[C@@H](OC)[C@H]3COC(=O)[C@H]23)OCO4)cc(OC)c1O	2.52
COc1cc(/C=C2\SC(=Nc3ccc(Cl)c(C(=O)O)c3)NC2=O)c(Br)c(Br)c1O	6.66
c1ccc2c(c1)C1=NCCN1c1ccccc1-2	2.93
O=C1c2cccc3c(O)ccc(c23)C(=O)N1Cc1ccco1	13.3
Cc1ccc(S(=O)(=O)N[C@H](C(=O)OCC(=O)NC(=O)C2CCCCC2)C(C)C)cc1	38.6
COC(=O)C1=CN(c2ccc3c(c2)OCO3)C(N)=C(C#N)C1c1cccc(F)c1 (stereo not given)	1.55
C=CCN=c1scc(C)n1/N=C/c1ccc(O)c(O)c1	> 50
Clc1ccc(Nc2ccc3ccccc3n2)cc1	8.45
O=C(CSC1=NNC(c2ccccn2)S1)Nc1ccccc1 (stereo not given)	> 50
COc1ccc(/C=C2\SC(=O)N(CCNC(=O)C3=COCCO3)C2=O)cc1	1.84
Nc1ccc(-c2c3ccc(=O)cc-3oc3cc(O)ccc23)cc1C(=O)O	7.85
Cn1cc(C(=O)N/N=C/c2ccc3c(c2)OCO3)c2ccccc21	9.88

Compound	AC50 [µM]
O=C(c1cccc(S(=O)(=O)N2CCN(c3ccc(F)cc3)CC2)c1)N1CCCC(C(F)(F)F)C1 (stereo not given)	16
COc1cc(-c2cnc3c(NC=O)cc(-c4cccc(C(F)(F)F)c4)cn23)cc(OC)c1OC	7.05
COc1cccc(-c2cnc3c(NC(C)=O)cc(-c4cc(F)ccc4OC)cn23)c1	11.9
COc1ccc(C(=O)NCC(c2ccco2)N2CCc3ccccc32)cc1 (stereo not given)	2.69
CCN(CC(=O)Nc1c(F)cccc1F)C(=O)C1CC1	33.1
N#CC1=C(N)Oc2c(ccc3cccnc23)C1c1ccccc1 (stereo not given)	2.97
Cc1ccnc2c1ccc1cccnc12	18.3
CC(=O)OCCn1c2nc(=O)[nH]c(=O)c-2nc2cc(C)c(C)cc21	15.3
COc1cc(C(=O)Nc2ccc3c(c2)ncn3C)cc(OC)c1OC	3.9
CCOC(=O)C1CCCN(c2ccc([N+](=O)[O-])c3nonc23)C1 (stereo not given)	20.7
N#Cc1c(-c2ccc(F)cc2)c(-c2ccc(F)cc2)nn(CCO)c1=O	2.57
CC(=Nc1ccccc1O)c1sc2ccccc2c1O	11.8
O=S1(=O)CCN(C(CO)c2ccccc2)CC1 (stereo not given)	43.3
CN(C[C@H](Cc1ccccc1)N(C[C@H](Cc1ccccc1)N(CCC(C)(C)C)N=O)N=O)N=O	47.9
CO[C@@]12[C@@H]3N[C@@H]3CN1C1=C(C(=O)C(N)=C(C)C1=O)[C@@H]2COC(N)=O	11.5
Cc1ccc(-c2cccc(CN3CCN(C(C)C)C(CCO)C3)c2)o1 (stereo not given)	> 50
COc1ccc(Nc2nc(-c3sc(C)nc3C)cs2)c(OC)c1	12.3
COc1cc(/C=N/NC(=O)c2cc(-c3c(C)nn(-c4ccccc4)c3C)n[nH]2)ccc1O	7.78
CCOc1ccc(NC(=O)CN(c2ccc([N+](=O)[O-])cc2)S(=O)(=O)c2ccccc2)cc1	18.1
C=C1C(=O)O[C@@H]2C[C@@H](C)[C@@H]3C=CC(=O)[C@@]3(C)[C@@H](O)[C@H]12	0.989
CCN(CC)CCCNc1ccc2ncn3c4ccc(O)cc4c(=O)c1c23	1.8
CCOC(=O)/C(=C/C=C1\Sc2cc(C)c(C)cc2N1CC)C(C)=O	13.6
